Results from publication PMC10436263 (2023).

Key:
Experiment in all cases: X-ray crystallography
[1] = tested on: d(5′-CGCGAATTCGCG-3′)2 (AATT) (DNA, duplex) CGCGAATTCGCG
[2] = tested on: d(5′-GCTGGATATATCCAGC-3′)2 (ATATAT) (DNA, duplex) GCTGGATATATCCAGC; conditions: 600 mM CaCl2; 10 mM HEPES pH 8.6, 40% PEG200 (well); 1.50 Å
[3] = tested on: d(5′-CGCGATATCGCG-3′)2 (ATAT) (DNA, duplex) CGCGATATCGCG; conditions: crystallization details in Table S1 (not seen); 1.63 Å
[4] = tested on: d(5′-CGCGAAAACGCG-3′/5′-CGCGTTTTCGCG-3′) (A4) (DNA, duplex) CGCGAAAACGCG/CGCGTTTTCGCG; conditions: crystallization details in Table S1 (not seen); 1.55 Å
[5] = tested on: d(5′-CGCAAATTTGCG-3′)2 (AAATTT, A3T3) (DNA, duplex) CGCAAATTTGCG; conditions: crystallization details in Table S1 (not seen); 1.54 Å
[6] = tested on: d(5′-CGCAAAAAAGCG-3′/5′-CGCTTTTTTGCG-3′) (A6) (DNA, duplex) CGCAAAAAAGCG/CGCTTTTTTGCG; conditions: crystallization details in Table S1 (not seen); two orientations (8F1S, 8F1V); 2.1 Å

Measured: binding

N=C(N)c1ccc(-c2ccc3cc(-c4ccc(C(=N)N)cc4)[nH]c3c2)cc1
yes: [1]; crystallization details in Table S1 (not seen)

N=C(N)c1ccc(-c2ccc3nc(-c4ccc(C(=N)N)cc4)[nH]c3c2)cc1
yes: [1]; 20 mM MgCl2, 80 mM NaCl, 12 mM KCl, 40 mM sodium cacodylate pH 6.0, 12 mM spermine, 10% MPD, two orientations (8EC1 I, 8ED6 II) | [2] | [3] | [4] | [5] | [6]
